Source: US8722687B2, “Imidazo [1,2-A]pyridine derivatives as FGFR kinase inhibitors for use in therapy” (Astex Therapeutics Ltd, priority 2009, dated 2014)

Assays:
[1] = target: T1, VEGFR2 (Homo sapiens, UniProt P35968); assay: VEGFR2 in vitro kinase inhibitory activity assay; type: biochemical; settings: read-out: VEGFR2 IC50(μM) or % I
T1 construct: purchased Upstate
Protocol: (§1) FGFR3, VEGFR2 and PDGFR in vitro Kinase Inhibitory Activity Assays
(§2) Enzymes (from Upstate), prepared at 2× final concentration, were incubated with test compounds, biotinylated Flt3 substrate (biotin-VASSDNEYFYVDF) (Cell Signalling Technology Inc.) and ATP in the appropriate assay buffer (Table 1). The reaction was allowed to proceed for 3 hours (FGFR3), 1 hour (VEGFR2, PDGFR-beta) at room temperature on a plate shaker at 700 rpm before being stopped with 35 mM EDTA, pH 8 (FGFR3, VEGFR2) or 55 mM EDTA, pH 8 (PDGFR-beta). 5× detection mix/50 mM HEPES pH 7.5, 0.1% BSA, 11.34 nM Eu-anti-pY (PY20) (PerkinElmer) 74 nM SA-XL665 (Cisbio) for FGFR3, 50 mM HEPES, pH 7.5, 0.1% BSA, 11.34 nM Eu-anti-pY (PY20), 187.5 nM SA-XL665 for VEGFR2 and 50 mM HEPES, pH 7.5, 0.1% BSA, 11.34 nM Eu-anti-pY (PT66) (PerkinElmer), 375 nM SA-XL665 (Cisbio) for PDGFR-beta) was then added to each well and the plate sealed and incubated at room temperature for one hour on a plate shaker at 700 rpm. The plate was then read on a Packard Fusion plate reader or a BMG Pherastar both in TRF mode.
Kinase Assay buffers were:
B: 50 mM HEPES pH 7.5, 6 mM MnCl2, 1 mM DTT, 0.01% TritonX-100, 0.1 mM Sodium orthovanadate

[2] = test system: human prostate cancer PC3 cells; assay: EB1 cellular assay (Eb1 Comet assay, microtubule disruption); type: cell-based; settings: PC-3, lowest active concentration: Eb1 foci absent in at least 50% of treated PC3 cells, 1 hour, read-out: Eb1 LAC
Protocol: The Eb1 Comet assay relies on the detection of the Eb1 protein at the plus end of polymerizing microtubules (Mimori-Kiyosue, 2000) using indirect immunofluorescence. Disruption of microtubule dynamics through de-polymerization or stabilization results in a de-localization of Eb1 from the growing microtubule ends and this is visualized by the disappearance of Eb1 containing cytoplasmic foci.
Briefly, human prostate cancer PC3 cells obtained from the American Type Culture Collection were grown in 96-well plates (Greiner, cat. no. 655090) in HAM's F12 medium as recommended by the provider (ATCC). The cells were treated for 1 hour at 37° C. with compounds dissolved in DMSO (0.6% final DMSO concentration). The culture medium was then removed by aspiration and the cells were fixed by adding cold methanol (−20° C.). After a 15 minutes incubation at −20° C., the cells were washed twice with DPBS (Gibco) containing 0.5% Triton X-100. Mouse Eb1 antibody (BD Transduction Laboratories, cat. no. 610534) was added to the cells (1/250 dilution in DPBS containing 1% BSA) and incubated overnight at room temperature. The antibody was subsequently removed and the cells washed twice with DPBS, 0.5% Triton X-100. Secondary goat anti-mouse antibody conjugated to Alexa 488 fluorescent dye (Molecular Probes) was added at a 1/500 dilution in DPBS, 1% BSA and incubated for 1 hour at 37° C. The cells were washed twice with DPBS, 0.5% Triton X-100 and then DPBS containing 0.5% Triton X-100 and 1/5000 Hoechst 33342 (Molecular Probes) was added. Microscopy based Eb1 foci visualization was carried out using an IN Cell Analyser 1000 (Amersham Biosciences) using a 20× objective. Compound dependent microtubule disruption was visually determined by the disappearance in Eb1 foci. The lowest active concentration (LAC) was determined as the concentration where Eb1 foci were absent in at least 50% of the treated cells. Herein the effects of test compounds are expressed as pLAC (the negative log value of the LAC-value)

[3] = target: T2, FGFR3 (Homo sapiens, UniProt P22607); assay: FGFR3 in vitro kinase inhibitory activity assay; type: biochemical; settings: read-out: FGFR3 IC50(μM) or % I
T2 construct: purchased Upstate
T2 sequence (P22607 23-806): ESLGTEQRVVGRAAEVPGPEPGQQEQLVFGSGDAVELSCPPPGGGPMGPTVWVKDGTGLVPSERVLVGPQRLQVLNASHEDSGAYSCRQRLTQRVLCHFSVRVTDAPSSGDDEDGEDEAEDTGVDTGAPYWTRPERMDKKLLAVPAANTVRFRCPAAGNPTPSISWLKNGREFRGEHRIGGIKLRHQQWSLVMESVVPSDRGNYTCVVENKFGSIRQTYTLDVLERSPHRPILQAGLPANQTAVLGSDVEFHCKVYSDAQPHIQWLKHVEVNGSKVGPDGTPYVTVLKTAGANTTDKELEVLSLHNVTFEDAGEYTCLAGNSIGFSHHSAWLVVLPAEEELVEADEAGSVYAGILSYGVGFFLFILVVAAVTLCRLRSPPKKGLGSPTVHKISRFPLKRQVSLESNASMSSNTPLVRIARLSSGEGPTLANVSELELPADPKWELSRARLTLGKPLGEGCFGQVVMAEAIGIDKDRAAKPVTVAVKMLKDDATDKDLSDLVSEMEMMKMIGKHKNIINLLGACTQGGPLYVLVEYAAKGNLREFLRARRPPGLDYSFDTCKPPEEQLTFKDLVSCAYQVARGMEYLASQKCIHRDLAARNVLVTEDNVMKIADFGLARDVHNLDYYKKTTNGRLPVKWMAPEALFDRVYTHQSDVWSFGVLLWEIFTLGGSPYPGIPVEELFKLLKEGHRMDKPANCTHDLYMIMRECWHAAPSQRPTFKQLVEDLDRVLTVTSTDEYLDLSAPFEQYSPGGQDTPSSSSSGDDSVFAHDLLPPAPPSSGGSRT
Protocol: as §1, §2

[4] = target: T3, Ba/F3-Flt3 cells (Homo sapiens, UniProt P36888, cells depend on it, form not given); assay: Ba/F3-Flt3 assay (Alamar Blue); type: cell-based, murine; settings: without IL3
T3 construct: Ba/F3-flt3 − IL3 pIC50; other: without IL3
T3 sequence (P36888 1-993): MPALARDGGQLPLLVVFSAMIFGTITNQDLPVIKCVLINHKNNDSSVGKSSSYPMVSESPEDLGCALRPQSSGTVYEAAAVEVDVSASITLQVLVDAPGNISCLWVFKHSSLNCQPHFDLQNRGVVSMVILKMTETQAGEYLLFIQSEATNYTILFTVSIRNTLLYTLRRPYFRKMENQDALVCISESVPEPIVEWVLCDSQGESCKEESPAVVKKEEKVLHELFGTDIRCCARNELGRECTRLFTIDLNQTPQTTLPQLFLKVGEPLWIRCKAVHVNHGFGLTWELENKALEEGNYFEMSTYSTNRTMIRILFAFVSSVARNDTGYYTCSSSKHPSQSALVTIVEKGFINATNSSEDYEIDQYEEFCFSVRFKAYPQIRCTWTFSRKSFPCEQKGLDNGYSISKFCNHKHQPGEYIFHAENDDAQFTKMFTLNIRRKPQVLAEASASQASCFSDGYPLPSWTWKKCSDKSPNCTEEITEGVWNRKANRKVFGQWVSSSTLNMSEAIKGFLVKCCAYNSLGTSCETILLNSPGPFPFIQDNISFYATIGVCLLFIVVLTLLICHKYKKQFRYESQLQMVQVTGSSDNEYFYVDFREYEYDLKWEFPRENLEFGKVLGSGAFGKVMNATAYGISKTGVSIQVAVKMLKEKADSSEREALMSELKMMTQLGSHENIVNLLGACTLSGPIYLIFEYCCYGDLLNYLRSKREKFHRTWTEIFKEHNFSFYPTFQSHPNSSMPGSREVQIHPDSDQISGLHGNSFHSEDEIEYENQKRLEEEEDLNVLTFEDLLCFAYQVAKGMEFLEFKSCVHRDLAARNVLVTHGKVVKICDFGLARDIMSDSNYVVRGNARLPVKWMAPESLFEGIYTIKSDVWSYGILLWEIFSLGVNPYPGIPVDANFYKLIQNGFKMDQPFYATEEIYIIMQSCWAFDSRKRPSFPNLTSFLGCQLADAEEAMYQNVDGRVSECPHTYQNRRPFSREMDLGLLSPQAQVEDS
Source text: (§3) Ba/F3, a murine interleukin-3 dependent pro-B cell line is increasingly popular as a model system for assessing both the potency and downstream signaling of kinase oncogenes, and the ability of small-molecule kinase inhibitors to block kinase activity. Facilitated by their growth properties. Ba/F3 cells have recently been adapted to high throughput assay formats for compound profiling. Further, several published approaches show promise in predicting resistance to small-molecule kinase inhibitors elicited by point mutations interfering with inhibitor binding (Ba/F3 cells and their use in kinase drug discovery; Markus Warmuth, Sungjoon Kim, Xiang-ju Gu, Gang Xia and Francisco Adria'n; Curr Opin Oncol 19:55-60).
(§4) Ba/F3-Flt3 cells (cultured in phenol red free RPMI-1640, 10% A FCS and 50 μg/ml Gentamycin at 37° C. and 5% 002) were plated at a density of 10000 cells in a total volume of 180 μl medium in a black TC-treated sterile 96-well plate (Corning). After 24 hours, drugs in different dilutions were added to a final volume of 200 μl and at a final DMSO concentration of 0.2% prior to incubation at 37° C., and 5% CO2.
(§5) After 24 h, to each well 40 μl Alamar Blue solution (Aldrich) was added and the cells were further incubated for 4 hours at 37° C. Fluorescence (ex. 544, em. 590 nm) was measured using a fluorescence reader (Labsystems) and IC50's were calculated.
(§6) In the condition containing IL3, 10 ng/ml of murine IL3 (PeproTech) was added during compound incubation.

[5] = test system: Ba/F3-Flt3 cells; assay: Ba/F3-Flt3 assay (Alamar Blue); type: cell-based, murine; settings: Mus musculus, 24 h; with 10 ng/ml murine IL3; read-out: Ba/F3-flt3 + IL3 pIC50 (converted)
Source text: as §3, §4, §5, §6

[6] = target: T4, Ba/F3-TEL-FGFR3 cells (Homo sapiens, UniProt P22607); assay: Ba/F3-TEL-FGFR3 cell proliferation assay (Alamar Blue); type: cell-based, murine; settings: 72 hours; read-out: BaF3-TEL-FGFR3 prolif
T4 construct: fused on or other part: TEL (ETV6) N-terminal oligomerising part fused to the FGFR3 kinase part; P41212 (Transcription factor ETV6)
T4 sequence (P22607 whole entry, change not shown, the tested form may be a part): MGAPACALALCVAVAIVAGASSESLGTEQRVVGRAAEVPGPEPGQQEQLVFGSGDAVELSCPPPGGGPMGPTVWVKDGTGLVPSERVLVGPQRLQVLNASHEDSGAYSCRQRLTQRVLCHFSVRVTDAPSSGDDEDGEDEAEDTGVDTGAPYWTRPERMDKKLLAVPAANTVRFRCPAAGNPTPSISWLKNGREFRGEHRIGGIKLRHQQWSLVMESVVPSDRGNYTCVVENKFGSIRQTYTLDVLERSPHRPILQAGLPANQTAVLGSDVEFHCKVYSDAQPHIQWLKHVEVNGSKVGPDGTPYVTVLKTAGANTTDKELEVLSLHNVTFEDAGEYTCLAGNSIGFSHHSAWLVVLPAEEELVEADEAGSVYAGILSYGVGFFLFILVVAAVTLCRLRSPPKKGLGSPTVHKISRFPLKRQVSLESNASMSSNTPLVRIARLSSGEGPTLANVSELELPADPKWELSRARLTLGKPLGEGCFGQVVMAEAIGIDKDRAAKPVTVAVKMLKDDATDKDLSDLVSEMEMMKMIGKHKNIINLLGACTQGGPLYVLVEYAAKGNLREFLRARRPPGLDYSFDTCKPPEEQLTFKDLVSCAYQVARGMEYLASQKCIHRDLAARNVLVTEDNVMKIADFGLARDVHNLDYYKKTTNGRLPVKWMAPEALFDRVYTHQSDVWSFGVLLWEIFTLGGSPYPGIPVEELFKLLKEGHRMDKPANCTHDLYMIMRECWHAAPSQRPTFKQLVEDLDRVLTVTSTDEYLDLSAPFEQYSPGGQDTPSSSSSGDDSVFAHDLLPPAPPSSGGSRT
Protocol: (§7) Ba/F3-TEL-FGFR3 & Ba/F3 (WT) Cell Proliferation Assays
(§8) Stably transfected Ba/F3-TEL-FGFR3 cells were plated out into black 96-well tissue culture plates with clear bottoms in RPMI medium containing 10% FBS and 0.25 mg/ml G418 at a density of 5×10^3 cells/well (200 μl per well). The parental wild-type Ba/F3 cells (DSMZ no.: ACC 300) were plated out into black 96-well tissue culture plates with clear bottoms in RPMI medium containing 10% FBS and 2 ng/ml mouse IL-3 (R&D Systems) at a density of 2.5×10^3 cells/well (200 μl per well). Plates were placed in an incubator overnight before adding the compounds the following day. Dilutions of compounds were made in DMSO starting at 10 mM and were diluted into the wells to give a final DMSO concentration of 0.1% in assay. Compounds were left on the cells for 72 hours before the plates were removed from the incubator and 20 μl of Alamar Blue™ (Biosource) was added to each well. Plates were placed in the incubator for 4-6 hours before reading plates at 535 nm (excitation)/590 nm (emission) on a Fusion plate reader (Packard). Where inhibition is high an IC50 can be determined.

[7] = test system: parental wild-type Ba/F3 cells; assay: Ba/F3 (WT) cell proliferation assay (Alamar Blue); type: cell-based, murine; settings: read-out: BaF3 WT prolif
Protocol: as §7, §8

T1 sequence (P35968 20-1356): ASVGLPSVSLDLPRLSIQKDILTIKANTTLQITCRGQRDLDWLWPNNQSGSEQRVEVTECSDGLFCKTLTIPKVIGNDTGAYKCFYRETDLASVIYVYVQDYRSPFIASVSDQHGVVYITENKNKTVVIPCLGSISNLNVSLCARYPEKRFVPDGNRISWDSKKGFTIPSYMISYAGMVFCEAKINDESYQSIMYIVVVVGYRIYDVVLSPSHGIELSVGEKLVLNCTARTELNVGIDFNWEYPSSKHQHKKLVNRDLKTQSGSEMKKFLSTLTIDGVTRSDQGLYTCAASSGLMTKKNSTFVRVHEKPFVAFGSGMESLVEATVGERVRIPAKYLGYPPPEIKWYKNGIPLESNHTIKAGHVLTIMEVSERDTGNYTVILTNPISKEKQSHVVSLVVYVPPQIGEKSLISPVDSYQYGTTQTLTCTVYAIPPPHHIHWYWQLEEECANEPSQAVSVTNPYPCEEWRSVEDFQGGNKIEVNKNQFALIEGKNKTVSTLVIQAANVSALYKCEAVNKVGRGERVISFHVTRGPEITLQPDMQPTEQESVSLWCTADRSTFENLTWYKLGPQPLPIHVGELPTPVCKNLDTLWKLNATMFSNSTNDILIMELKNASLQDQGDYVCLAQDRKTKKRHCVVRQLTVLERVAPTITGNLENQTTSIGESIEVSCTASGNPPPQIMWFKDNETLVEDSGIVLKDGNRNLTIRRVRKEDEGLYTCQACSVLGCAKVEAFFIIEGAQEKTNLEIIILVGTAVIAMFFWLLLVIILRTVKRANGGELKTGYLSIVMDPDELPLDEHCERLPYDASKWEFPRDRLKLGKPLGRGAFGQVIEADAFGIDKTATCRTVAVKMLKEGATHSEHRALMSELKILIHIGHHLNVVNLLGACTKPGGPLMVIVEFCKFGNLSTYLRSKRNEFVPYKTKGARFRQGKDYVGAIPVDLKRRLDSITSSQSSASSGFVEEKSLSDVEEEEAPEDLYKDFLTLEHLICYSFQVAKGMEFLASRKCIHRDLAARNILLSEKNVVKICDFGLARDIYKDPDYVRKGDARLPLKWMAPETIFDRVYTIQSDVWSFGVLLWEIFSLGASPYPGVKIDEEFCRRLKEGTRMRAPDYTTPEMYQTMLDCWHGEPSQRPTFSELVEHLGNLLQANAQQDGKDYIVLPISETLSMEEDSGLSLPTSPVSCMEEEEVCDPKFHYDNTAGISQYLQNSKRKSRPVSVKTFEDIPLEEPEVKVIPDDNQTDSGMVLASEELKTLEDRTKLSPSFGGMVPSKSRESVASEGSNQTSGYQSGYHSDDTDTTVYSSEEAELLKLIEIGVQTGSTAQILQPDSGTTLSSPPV

IC50 [1]	Ba/F3-flt3 − IL3 pIC50 [4]	IC50 [5]	IC50 [3]	GI50 [6]	SMILES	minimal effective concentration [2]	inhibition at 0.3 µM ([3]; 3 h, % I at 0.3 μM)	IC50 ([7]; BaF3, 72 hours, with mouse IL-3)	inhibition at 10 µM ([7]; Mus musculus, BaF3, 72 h, % at 10.0 μM)
2.6 µM			0.2 µM		Cc1nnc(-c2ccn3c(-c4cc(NC(=O)NCC(C)C)cc(OC(C)C)c4)cnc3c2)o1 [Compound F-14, 1-Isobutyl-3-{3-isopropoxy-5-[7-(5-methyl-[1,3,4]oxadiazol-2-yl)-imidazo[1,2-a]pyridin-3-yl]-phenyl}-urea]				
0.79 µM			0.012 µM	240 nM	CC(C)Oc1cc(NC(=O)NCC(F)(F)F)cc(-c2cnc3cc(-c4cc(N(C)C)ncn4)ccn23)c1 [Compound F-21, 1-{3-[7-(6-Dimethylamino-pyrimidin-4-yl)-imidazo[1,2-a]pyridin-3-yl]-5-isopropoxy-phenyl}-3-(2,2,2-trifluoro-ethyl)-urea]			2300 nM	
1.1 µM			0.041 µM	1300 nM	CC(C)Oc1cc(NC(=O)NCC(F)(F)F)cc(-c2cnc3cc(-c4nnco4)ccn23)c1 [Compound F-22, 1-[3-Isopropoxy-5-(7-[1,3,4]oxadiazol-2-yl-imidazo[1,2-a]pyridin-3-yl)-phenyl]-3-(2,2,2-trifluoro-ethyl)-urea]				19%
2.8 µM	<5	> 10000 nM			Cc1nnc(-c2ccn3c(-c4cc(CN(C)C)cc(NC(=O)NCC(F)(F)F)c4)cnc3c2)o1 [Compound F-24, 1-{3-Dimethylaminomethyl-5-[7-(5-methyl-[1,3,4]oxadiazol-2-yl)-imidazo[1,2-a]pyridin-3-yl]-phenyl}-3-(2,2,2-trifluoroethyl)-urea]	> 10 µM			
1.7 µM	<5	> 10000 nM	0.46 µM		CNCc1cc(NC(=O)NCC(F)(F)F)cc(-c2cnc3cc(-c4nnc(C)o4)ccn23)c1 [Compound F-25, 1-{3-Methylaminomethyl-5-[7-(5-methyl-[1,3,4]oxadiazol-2-yl)-imidazo[1,2-a]pyridin-3-yl]-phenyl}-3-(2,2,2-trifluoroethyl)-urea]	> 10 µM			
5.8 µM	<5	> 10000 nM	0.17 µM		Cc1nnc(-c2ccn3c(-c4cc(NC(=O)NCC(F)(F)F)cc(NC(C)C)c4)cnc3c2)o1 [Compound F-30]	10 µM			
1.2 µM	<5	> 10000 nM			Cc1nnc(-c2ccn3c(-c4cc(NC(=O)NC(O)C(F)(F)F)cc(OC(C)C)c4)cnc3c2)o1 (stereo not drawn) [Compound F-32, 1-{3-Isopropoxy-5-[7-(5-methyl-[1,3,4]oxadiazol-2-yl)-imidazo[1,2-a]pyridin-3-yl]-phenyl}-3-(2,2,2-trifluoro-1-hydroxyethyl)-urea]	> 10 µM			

SMILES	IC50 [1]	Ba/F3-flt3 − IL3 pIC50 [4]	IC50 [5]	IC50 [3]	GI50 [6]	minimal effective concentration [2]	inhibition at 0.3 µM ([3]; 3 h, % I at 0.3 μM)	IC50 ([7]; BaF3, 72 hours, with mouse IL-3)	inhibition at 10 µM ([7]; Mus musculus, BaF3, 72 h, % at 10.0 μM)
O=C(NCC(F)(F)F)Nc1cc(OC2CCC2)cc(-c2cnc3cc(-c4ccnc(C(F)(F)F)n4)ccn23)c1 [Compound F-12, 1-{3-Cyclobutoxy-5-[7-(2-trifluoromethyl-pyrimidin-4-yl)-imidazo[1,2-a]pyridin-3-yl]-phenyl}-3-(2,2,2-trifluoro-ethyl)-urea]	2.2 µM	<5	> 10000 nM			> 10 µM	60%		
